In US20210045385A1, “PYRIDAZINONE-SUBSTITUTED KETOXIMES AS HERBICIDES” (FMC Corporation, priority 2018, published 2021):

What was measured:
Type in all cases: in vivo
[1] = tested on: Italian ryegrass (Lolium mutiflorum); assay: Test C preemergence, visual plant response rating; conditions: Test C, 0 is no effect, 100 is complete control
In short: (§1)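 Compounds in a non-phytotoxic solvent with surfactant were applied as a directed soil spray preemergence or to 2–10 cm, one- to two-leaf plants postemergence, in loam–sand soil. After about 10 d in a greenhouse, injury was visually rated against untreated controls on a 0–100 scale (100 = complete control).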

[2] = tested on: barnyardgrass (Echinochloa crus-galli); assay: Test C preemergence, visual plant response rating; conditions: Test C, 0 is no effect, 100 is complete control
In short: as §1

[3] = tested on: foxtail, giant (giant foxtail, Setaria faberi); assay: Test C preemergence, visual plant response rating; conditions: Test C, 0 is no effect, 100 is complete control
In short: as §1

[4] = tested on: kochia (Bassia scoparia); assay: Test C preemergence, visual plant response rating; conditions: Test C, 0 is no effect, 100 is complete control
In short: as §1

[5] = tested on: pigweed (Amaranthus retroflexus); assay: Test C preemergence, visual plant response rating; conditions: Test C, 0 is no effect, 100 is complete control
In short: as §1

[6] = tested on: ragweed (common ragweed, Ambrosia artemisiifolia); assay: Test C preemergence, visual plant response rating; conditions: Test C, 0 is no effect, 100 is complete control
In short: as §1

[7] = tested on: Italian ryegrass (Lolium mutiflorum); assay: Test C postemergence, visual plant response rating
In short: as §1

[8] = tested on: barnyardgrass (Echinochloa crus-galli); assay: Test C postemergence, visual plant response rating
In short: as §1

[9] = tested on: blackgrass (Alopecurus myosuroides); assay: Test C postemergence, visual plant response rating
In short: as §1

[10] = tested on: corn (Zea mays); assay: Test C postemergence, visual plant response rating
In short: as §1

[11] = tested on: foxtail, giant (giant foxtail, Setaria faberi); assay: Test C postemergence, visual plant response rating
In short: as §1

[12] = tested on: galium (catchweed bedstraw, Galium aparine); assay: Test C postemergence, visual plant response rating
In short: as §1

[13] = tested on: kochia (Bassia scoparia); assay: Test C postemergence, visual plant response rating
In short: as §1

[14] = tested on: pigweed (Amaranthus retroflexus); assay: Test C postemergence, visual plant response rating
In short: as §1

[15] = tested on: ragweed (common ragweed, Ambrosia artemisiifolia); assay: Test C postemergence, visual plant response rating
In short: as §1

[16] = tested on: wheat (Triticum aestivum); assay: Test C postemergence, visual plant response rating
In short: as §1

[17] = tested on: barnyardgrass (Echinochloa crus-galli); assay: Test D flooded paddy test, visual plant response rating; conditions: 250 g ai/ha, scale 0 to 100 (0 no effect, 100 complete control), 13 to 15 d
In short: (§2)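 2-leaf plants, flooded 3 cm, cpd into paddy water; greenhouse 13–15 d; visual rating vs controls, 0 = no effect, 100 = complete control; dash = no result.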

[18] = tested on: duck salad (Heteranthera limosa); assay: as above; conditions: 250 g ai/ha, scale 0 to 100 (0 no effect, 100 complete control), 13 to 15 d
In short: as §2

[19] = tested on: rice (Oryza sativa); assay: as above; conditions: 250 g ai/ha, scale 0 to 100 (0 no effect, 100 complete control), 13 to 15 d
In short: as §2

[20] = tested on: sedge umbrella (small-flower umbrella sedge, Cyperus difformis); assay: as above; conditions: 250 g ai/ha, scale 0 to 100 (0 no effect, 100 complete control), 13 to 15 d
In short: as §2

[21] = Test C, postemergence, 125 g ai/ha

Row | Compound | Ryegrass, Italian plant response rating (0 to 100 scale) ([1]; 31 g ai/ha) | Ryegrass, Italian plant response rating (0 to 100 scale) ([1]; 125 g ai/ha) | Barnyardgrass plant response rating (0 to 100 scale) ([2]; 31 g ai/ha) | Barnyardgrass plant response rating (0 to 100 scale) ([2]; 125 g ai/ha) | Foxtail, Giant plant response rating (0 to 100 scale) ([3]; 31 g ai/ha) | Foxtail, Giant plant response rating (0 to 100 scale) ([3]; 125 g ai/ha) | Kochia plant response rating (0 to 100 scale) ([4]; 31 g ai/ha) | Kochia plant response rating (0 to 100 scale) ([4]; 125 g ai/ha) | Pigweed plant response rating (0 to 100 scale) ([5]; 31 g ai/ha) | Pigweed plant response rating (0 to 100 scale) ([5]; 125 g ai/ha) | Ragweed plant response rating (0 to 100 scale) ([6]; 31 g ai/ha) | Ragweed plant response rating (0 to 100 scale) ([6]; 125 g ai/ha) | Ryegrass, Italian plant response rating (0 to 100 scale) ([7]; Postemergence, 31 g ai/ha) | Ryegrass, Italian plant response rating (0 to 100 scale) [7, 21] | Barnyardgrass plant response rating (0 to 100 scale) ([8]; Postemergence, 31 g ai/ha) | Barnyardgrass plant response rating (0 to 100 scale) [8, 21] | Blackgrass plant response rating (0 to 100 scale) ([9]; Postemergence, 31 g ai/ha) | Blackgrass plant response rating (0 to 100 scale) [9, 21] | Corn plant response rating (0 to 100 scale) ([10]; Postemergence, 31 g ai/ha) | Corn plant response rating (0 to 100 scale) [10, 21] | further results
1 | C#CCON=C(c1cc(Cl)cc(Cl)c1Cl)c1c(O)c(C)nn(C)c1=O [Compound 296] | 90 | 100 | 60 | 100 | 80 | 100 | 0 | 20 | 40 | 100 | 30 | 100 | 80 | 100 | 20 | 70 | 0 | 70 | 0 | 20 | Foxtail, Giant plant response rating (0 to 100 scale) ([11]; Postemergence, 31 g ai/ha): 30; Foxtail, Giant plant response rating (0 to 100 scale) [11, 21]: 90; Galium plant response rating (0 to 100 scale) ([12]; Postemergence, 31 g ai/ha): 100; Galium plant response rating (0 to 100 scale) [12, 21]: 100; Kochia plant response rating (0 to 100 scale) ([13]; Postemergence, 31 g ai/ha): 30; Kochia plant response rating (0 to 100 scale) [13, 21]: 50; Pigweed plant response rating (0 to 100 scale) ([14]; Postemergence, 31 g ai/ha): 80; Pigweed plant response rating (0 to 100 scale) [14, 21]: 90; Ragweed plant response rating (0 to 100 scale) ([15]; Postemergence, 31 g ai/ha): 100; Ragweed plant response rating (0 to 100 scale) [15, 21]: 100; Wheat plant response rating (0 to 100 scale) ([16]; Postemergence, 31 g ai/ha): 70; Wheat plant response rating (0 to 100 scale) [16, 21]: 100; Plant response rating, Barnyardgrass (Flood) [17]: 0; Plant response rating, Ducksalad (Flood) [18]: 0; Plant response rating, Rice (Flood) [19]: 0; Plant response rating, Sedge, Umbrella (Flood) [20]: 0
2 | CO/N=C(\c1c(O)c(Cl)nn(C)c1=O)c1ccc(F)c2ccccc12 [Compound 208] | 10 | 70 | 0 | 80 | 50 | 90 | 0 | 20 | 40 | 100 | 60 | 100 | 30 | 80 | 30 | 60 | 0 | 30 | 0 | 10 | Foxtail, Giant plant response rating (0 to 100 scale) ([11]; Postemergence, 31 g ai/ha): 20; Foxtail, Giant plant response rating (0 to 100 scale) [11, 21]: 60; Galium plant response rating (0 to 100 scale) ([12]; Postemergence, 31 g ai/ha): 90; Galium plant response rating (0 to 100 scale) [12, 21]: 100; Kochia plant response rating (0 to 100 scale) ([13]; Postemergence, 31 g ai/ha): 50; Kochia plant response rating (0 to 100 scale) [13, 21]: 70; Pigweed plant response rating (0 to 100 scale) ([14]; Postemergence, 31 g ai/ha): 30; Pigweed plant response rating (0 to 100 scale) [14, 21]: 40; Ragweed plant response rating (0 to 100 scale) ([15]; Postemergence, 31 g ai/ha): 100; Ragweed plant response rating (0 to 100 scale) [15, 21]: 100; Wheat plant response rating (0 to 100 scale) ([16]; Postemergence, 31 g ai/ha): 0; Wheat plant response rating (0 to 100 scale) [16, 21]: 0; Plant response rating, Barnyardgrass (Flood) [17]: 0; Plant response rating, Ducksalad (Flood) [18]: 0; Plant response rating, Rice (Flood) [19]: 0; Plant response rating, Sedge, Umbrella (Flood) [20]: 0
3 | C#CCO/N=C(/c1cccc(/C=C/Cl)c1)c1c(O)c(C)nn(C)c1=O [Compound 253] | 0 | 30 | 0 | 0 | 0 | 10 | 0 | 0 | 0 | 80 | 0 | 0 | 10 | 60 | 10 | 40 | 20 | 60 | 0 | 0 | Foxtail, Giant plant response rating (0 to 100 scale) ([11]; Postemergence, 31 g ai/ha): 20; Foxtail, Giant plant response rating (0 to 100 scale) [11, 21]: 50; Galium plant response rating (0 to 100 scale) ([12]; Postemergence, 31 g ai/ha): 30; Galium plant response rating (0 to 100 scale) [12, 21]: 50; Kochia plant response rating (0 to 100 scale) ([13]; Postemergence, 31 g ai/ha): 20; Kochia plant response rating (0 to 100 scale) [13, 21]: 60; Pigweed plant response rating (0 to 100 scale) ([14]; Postemergence, 31 g ai/ha): 50; Pigweed plant response rating (0 to 100 scale) [14, 21]: 70; Ragweed plant response rating (0 to 100 scale) ([15]; Postemergence, 31 g ai/ha): 30; Ragweed plant response rating (0 to 100 scale) [15, 21]: 40; Wheat plant response rating (0 to 100 scale) ([16]; Postemergence, 31 g ai/ha): 0; Wheat plant response rating (0 to 100 scale) [16, 21]: 30; Plant response rating, Barnyardgrass (Flood) [17]: 0; Plant response rating, Ducksalad (Flood) [18]: 0; Plant response rating, Rice (Flood) [19]: 0; Plant response rating, Sedge, Umbrella (Flood) [20]: 0
